In patent US9708314B2, “Heterocyclic amide compound” (NISSAN CHEMICAL INDUSTRIES, LTD., priority 2013, dated 2017):

How the values were obtained:
Type in all cases: in vivo
[1] = test system: transplanted Oryza sativa; assay: Test Example 1: effect on crop, application before weed generation in submerged conditions; conditions: Seventeenth Table
Outline: (§1)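 Pre-emergence application to water surface of submerged pots (4 cm depth, alluvial soil) on sowing day, with 2.5-leaf rice transplanted; emulsion diluted to g/ha rates. Grown in greenhouse at 25–30 °C; 0–5 herbicidal/crop-effect score after three weeks.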

[2] = test system: Glycine max; assay: Test Example 4: effect on crop by application to foliage (diluvial soil, plastic box); conditions: for c (Glycine max) effect on crop: application to foliage, application herbicide amount 320 g/ha
Outline: (§2)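 Plants were grown in sterilized diluvial soil in a greenhouse at 25-30° C for 14 days, then sprayed on stems and leaves with water-diluted emulsion formulation at set rates in g/ha. Weed control and crop injury were scored 3 weeks after treatment on a 0-5 herbicidal-ratio scale, from 0 (≤5%) to 5 (≥90%).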

[3] = test system: Brassica campestris L.; assay: as above; conditions: for g (Brassica campestris L.) effect on crop: application to foliage, application herbicide amount 320 g/ha
Outline: as §2

[4] = test system: directly sowed Oryza sativa; assay: as above; conditions: for d (directly sowed Oryza sativa) effect on crop: application to foliage, application herbicide amount 320 g/ha
Outline: as §2

[5] = test system: Triticum aestivum; assay: as above; conditions: for e (Triticum aestivum) effect on crop: application to foliage, application herbicide amount 320 g/ha
Outline: as §2

[6] = test system: Zea mays; assay: as above; conditions: for b (Zea mays) effect on crop: application to foliage, application herbicide amount 320 g/ha
Outline: as §2

[7] = test system: Beta vulgaris ssp. vulgaris; assay: as above; conditions: for f (Beta vulgaris ssp. vulgaris) effect on crop: application to foliage, application herbicide amount 320 g/ha
Outline: as §2

[8] = test system: Echinochloa oryzacola Vasing.; assay: Test Example 1: herbicidal activity, application before weed generation in submerged conditions; conditions: Seventeenth Table
Outline: as §1

[9] = test system: Scirpus juncoides; assay: as above; conditions: Seventeenth Table
Outline: as §1

[10] = test system: Monochoria vaginalis; assay: as above; conditions: Seventeenth Table
Outline: as §1

[11] = test system: Digitaria ciliaris; assay: Test Example 4: herbicidal effect by application to foliage (diluvial soil, plastic box); conditions: for F (Digitaria ciliaris) herbicidal effect: application to foliage, application herbicide amount 320 g/ha
Outline: as §2

[12] = test system: Alopecurus myosuroides; assay: as above; conditions: for J (Alopecurus myosuroides) herbicidal effect: application to foliage, application herbicide amount 320 g/ha
Outline: as §2

[13] = test system: Lolium multiflorum Lam.; assay: as above; conditions: for K (Lolium multiflorum Lam.) herbicidal effect: application to foliage, application herbicide amount 320 g/ha
Outline: as §2

[14] = test system: Galium spurium; assay: as above; conditions: for Q (Galium spurium) herbicidal effect: application to foliage, application herbicide amount 320 g/ha
Outline: as §2

[15] = test system: Echinochloa crus-galli var. crus-galli; assay: as above; conditions: for H (Echinochloa crus-galli var. crus-galli) herbicidal effect: application to foliage, application herbicide amount 320 g/ha
Outline: as §2

[16] = test system: Veronica persica; assay: as above; conditions: for R (Veronica persica) herbicidal effect: application to foliage, application herbicide amount 320 g/ha
Outline: as §2

[17] = test system: Chenopodium album; assay: as above; conditions: for O (Chenopodium album) herbicidal effect: application to foliage, application herbicide amount 320 g/ha
Outline: as §2

[18] = test system: Apera spica-venti.; assay: as above; conditions: for L (Apera spica-venti.) herbicidal effect: application to foliage, application herbicide amount 320 g/ha
Outline: as §2

[19] = test system: Setaria viridis; assay: as above; conditions: for G (Setaria viridis) herbicidal effect: application to foliage, application herbicide amount 320 g/ha
Outline: as §2

[20] = test system: Avena fatua; assay: as above; conditions: for I (Avena fatua) herbicidal effect: application to foliage, application herbicide amount 320 g/ha
Outline: as §2

[21] = test system: Abutilon theophrasti; assay: as above; conditions: for M (Abutilon theophrasti) herbicidal effect: application to foliage, application herbicide amount 320 g/ha
Outline: as §2

[22] = Application herbicide amount 320 g/ha
[23] = Application herbicide amount 320 g/ha, effect on crop
[24] = Application herbicide amount 192 g/ha

Cc1nnc(NC(=O)c2ccc(C(F)F)n3c(C(C)C)nnc23)o1 [1-053]
a: transplanted Oryza sativa (effect on crop grade) [1, 22]: 0 (Herbicidal ratio of 5% or less (almost no effect))
c (Glycine max) effect on crop [2]: 0 (Herbicidal ratio of 5% or less (almost no effect))
g (Brassica campestris L.) effect on crop [3]: 1 (Herbicidal ratio of 5% or more and less than 20%)
d (directly sowed Oryza sativa) effect on crop [4]: 3 (Herbicidal ratio of 40% or more and less than 70%)
e (Triticum aestivum) effect on crop [5]: 0 (Herbicidal ratio of 5% or less (almost no effect))
b (Zea mays) effect on crop [6]: 0 (Herbicidal ratio of 5% or less (almost no effect))
f (Beta vulgaris ssp. vulgaris) effect on crop [7]: 3 (Herbicidal ratio of 40% or more and less than 70%)
A: Echinochloa oryzicola Vasing. (herbicidal effect grade) [8, 22]: 2 (Herbicidal ratio of 20% or more and less than 40%)
B: Scirpus juncoides (herbicidal effect grade) [9, 22]: 3 (Herbicidal ratio of 40% or more and less than 70%)
C: Monochoria vaginalis (herbicidal effect grade) [10, 22]: 2 (Herbicidal ratio of 20% or more and less than 40%)
F (Digitaria ciliaris) herbicidal effect [11]: 3 (Herbicidal ratio of 40% or more and less than 70%)
J (Alopecurus myosuroides) herbicidal effect [12]: 0 (Herbicidal ratio of 5% or less (almost no effect))
K (Lolium multiflorum Lam.) herbicidal effect [13]: 0 (Herbicidal ratio of 5% or less (almost no effect))
Q (Galium spurium) herbicidal effect [14]: 2 (Herbicidal ratio of 20% or more and less than 40%)
H (Echinochloa crus-galli var. crus-galli) herbicidal effect [15]: 3 (Herbicidal ratio of 40% or more and less than 70%)
R (Veronica persica) herbicidal effect [16]: 4 (Herbicidal ratio of 70% or more and less than 90%)
O (Chenopodium album) herbicidal effect [17]: 5 (Herbicidal ratio of 90% or more (almost completely withered))
L (Apera spica-venti.) herbicidal effect [18]: 0 (Herbicidal ratio of 5% or less (almost no effect))
G (Setaria viridis) herbicidal effect [19]: 2 (Herbicidal ratio of 20% or more and less than 40%)
I (Avena fatua) herbicidal effect [20]: 1 (Herbicidal ratio of 5% or more and less than 20%)
M (Abutilon theophrasti) herbicidal effect [21]: 4 (Herbicidal ratio of 70% or more and less than 90%)

C#CCSc1nnc2c(C(=O)Nc3nnc(C)o3)ccc(C(F)(F)F)n12 [1-065]
a: transplanted Oryza sativa (effect on crop grade) [1, 22]: 0 (Herbicidal ratio of 5% or less (almost no effect))
c [2, 23]: 0 (Herbicidal ratio of 5% or less (almost no effect))
g [3, 23]: 2 (Herbicidal ratio of 20% or more and less than 40%)
d [4, 23]: 3 (Herbicidal ratio of 40% or more and less than 70%)
e [5, 23]: 0 (Herbicidal ratio of 5% or less (almost no effect))
b [6, 23]: 0 (Herbicidal ratio of 5% or less (almost no effect))
f [7, 23]: 4 (Herbicidal ratio of 70% or more and less than 90%)
A: Echinochloa oryzicola Vasing. (herbicidal effect grade) [8, 22]: 5 (Herbicidal ratio of 90% or more (almost completely withered))
B: Scirpus juncoides (herbicidal effect grade) [9, 22]: 3 (Herbicidal ratio of 40% or more and less than 70%)
C: Monochoria vaginalis (herbicidal effect grade) [10, 22]: 2 (Herbicidal ratio of 20% or more and less than 40%)
F [11, 22]: 4 (Herbicidal ratio of 70% or more and less than 90%)
J [12, 22]: 0 (Herbicidal ratio of 5% or less (almost no effect))
K [13, 22]: 0 (Herbicidal ratio of 5% or less (almost no effect))
Q [14, 22]: 0 (Herbicidal ratio of 5% or less (almost no effect))
H [15, 22]: 1 (Herbicidal ratio of 5% or more and less than 20%)
R [16, 22]: 3 (Herbicidal ratio of 40% or more and less than 70%)
O [17, 22]: 5 (Herbicidal ratio of 90% or more (almost completely withered))
L [18, 22]: 0 (Herbicidal ratio of 5% or less (almost no effect))
G [19, 22]: 1 (Herbicidal ratio of 5% or more and less than 20%)
I [20, 22]: 1 (Herbicidal ratio of 5% or more and less than 20%)
M [21, 22]: 3 (Herbicidal ratio of 40% or more and less than 70%)

Cc1ccc(-c2nnc3c(C(=O)Nc4nnc(C)o4)ccc(C(F)(F)F)n23)cc1 [1-043]
a: transplanted Oryza sativa (effect on crop grade) [1, 22]: 3 (Herbicidal ratio of 40% or more and less than 70%)
c (Glycine max) effect on crop [2]: 2 (Herbicidal ratio of 20% or more and less than 40%)
g (Brassica campestris L.) effect on crop [3]: 3 (Herbicidal ratio of 40% or more and less than 70%)
d (directly sowed Oryza sativa) effect on crop [4]: 2 (Herbicidal ratio of 20% or more and less than 40%)
e (Triticum aestivum) effect on crop [5]: 0 (Herbicidal ratio of 5% or less (almost no effect))
b (Zea mays) effect on crop [6]: 4 (Herbicidal ratio of 70% or more and less than 90%)
f (Beta vulgaris ssp. vulgaris) effect on crop [7]: 5 (Herbicidal ratio of 90% or more (almost completely withered))
A: Echinochloa oryzicola Vasing. (herbicidal effect grade) [8, 22]: 5 (Herbicidal ratio of 90% or more (almost completely withered))
B: Scirpus juncoides (herbicidal effect grade) [9, 22]: 3 (Herbicidal ratio of 40% or more and less than 70%)
C: Monochoria vaginalis (herbicidal effect grade) [10, 22]: 3 (Herbicidal ratio of 40% or more and less than 70%)
F (Digitaria ciliaris) herbicidal effect [11]: 4 (Herbicidal ratio of 70% or more and less than 90%)
J (Alopecurus myosuroides) herbicidal effect [12]: 1 (Herbicidal ratio of 5% or more and less than 20%)
K (Lolium multiflorum Lam.) herbicidal effect [13]: 1 (Herbicidal ratio of 5% or more and less than 20%)
Q (Galium spurium) herbicidal effect [14]: 3 (Herbicidal ratio of 40% or more and less than 70%)
H (Echinochloa crus-galli var. crus-galli) herbicidal effect [15]: 5 (Herbicidal ratio of 90% or more (almost completely withered))
R (Veronica persica) herbicidal effect [16]: 4 (Herbicidal ratio of 70% or more and less than 90%)
O (Chenopodium album) herbicidal effect [17]: 5 (Herbicidal ratio of 90% or more (almost completely withered))
L (Apera spica-venti.) herbicidal effect [18]: 1 (Herbicidal ratio of 5% or more and less than 20%)
G (Setaria viridis) herbicidal effect [19]: 3 (Herbicidal ratio of 40% or more and less than 70%)
I (Avena fatua) herbicidal effect [20]: 2 (Herbicidal ratio of 20% or more and less than 40%)
M (Abutilon theophrasti) herbicidal effect [21]: 5 (Herbicidal ratio of 90% or more (almost completely withered))

Cc1cc(C(=O)Nc2nnnn2C)c2nnc(C(C)C)n2c1C(F)(F)F [2-050]
a: transplanted Oryza sativa (effect on crop grade) [1, 24]: 2 (Herbicidal ratio of 20% or more and less than 40%)
c (Glycine max) effect on crop grade ([2]; foliage application, 192 g/ha): 0 (Herbicidal ratio of 5% or less (almost no effect))
g (Brassica campestris L.) effect on crop grade ([3]; foliage application, 192 g/ha): 0 (Herbicidal ratio of 5% or less (almost no effect))
d (directly sowed Oryza sativa) effect on crop grade ([4]; foliage application, 192 g/ha): 3 (Herbicidal ratio of 40% or more and less than 70%)
e (Triticum aestivum) effect on crop grade ([5]; foliage application, 192 g/ha): 0 (Herbicidal ratio of 5% or less (almost no effect))
b (Zea mays) effect on crop grade ([6]; foliage application, 192 g/ha): 0 (Herbicidal ratio of 5% or less (almost no effect))
f (Beta vulgaris ssp. vulgaris) effect on crop grade ([7]; foliage application, 192 g/ha): 3 (Herbicidal ratio of 40% or more and less than 70%)
A: Echinochloa oryzicola Vasing. (herbicidal effect grade) [8, 24]: 4 (Herbicidal ratio of 70% or more and less than 90%)
B: Scirpus juncoides (herbicidal effect grade) [9, 24]: 2 (Herbicidal ratio of 20% or more and less than 40%)
C: Monochoria vaginalis (herbicidal effect grade) [10, 24]: 3 (Herbicidal ratio of 40% or more and less than 70%)
F (Digitaria ciliaris) herbicidal effect grade ([11]; foliage application, 192 g/ha): 3 (Herbicidal ratio of 40% or more and less than 70%)
J (Alopecurus myosuroides) herbicidal effect grade ([12]; foliage application, 192 g/ha): 0 (Herbicidal ratio of 5% or less (almost no effect))
K (Lolium multiflorum Lam.) herbicidal effect grade ([13]; foliage application, 192 g/ha): 0 (Herbicidal ratio of 5% or less (almost no effect))
Q (Galium spurium) herbicidal effect grade ([14]; foliage application, 192 g/ha): 0 (Herbicidal ratio of 5% or less (almost no effect))
H (Echinochloa crus-galli var. crus-galli) herbicidal effect grade ([15]; foliage application, 192 g/ha): 3 (Herbicidal ratio of 40% or more and less than 70%)
R (Veronica persica) herbicidal effect grade ([16]; foliage application, 192 g/ha): 3 (Herbicidal ratio of 40% or more and less than 70%)
O (Chenopodium album) herbicidal effect grade ([17]; foliage application, 192 g/ha): 5 (Herbicidal ratio of 90% or more (almost completely withered))
L (Apera spica-venti.) herbicidal effect grade ([18]; foliage application, 192 g/ha): 0 (Herbicidal ratio of 5% or less (almost no effect))
G (Setaria viridis) herbicidal effect grade ([19]; foliage application, 192 g/ha): 1 (Herbicidal ratio of 5% or more and less than 20%)
I (Avena fatua) herbicidal effect grade ([20]; foliage application, 192 g/ha): 2 (Herbicidal ratio of 20% or more and less than 40%)
M (Abutilon theophrasti) herbicidal effect grade ([21]; foliage application, 192 g/ha): 3 (Herbicidal ratio of 40% or more and less than 70%)
